Data reported in patent US9328099B2, “Cyanomethylpyrazole carboxamides as janus kinase inhibitors” (Merck Sharp & Dohme Corp., priority 2011, dated 2016).

Experiments:
JAK1 = JAK1 (Homo sapiens (Human), UniProt P23458); assay: Jak Biochemical HTRF Assay, JAK1; conditions: HTRF biochemical assay, GST-tagged catalytic domain; top concentration tested […]; read-out: JAK1 IC50
From the text: (§1) Jak Biochemical HTRF Assay Protocol
(§2) Subsequent reagent additions employed an Agilent Bravo.

JAK2 = JAK2 (Homo sapiens (Human), UniProt O60674); assay: Jak Biochemical HTRF Assay, JAK2; conditions: HTRF biochemical assay, GST-tagged catalytic domain; top concentration tested […]
JAK2, sequence (O60674 849-1124): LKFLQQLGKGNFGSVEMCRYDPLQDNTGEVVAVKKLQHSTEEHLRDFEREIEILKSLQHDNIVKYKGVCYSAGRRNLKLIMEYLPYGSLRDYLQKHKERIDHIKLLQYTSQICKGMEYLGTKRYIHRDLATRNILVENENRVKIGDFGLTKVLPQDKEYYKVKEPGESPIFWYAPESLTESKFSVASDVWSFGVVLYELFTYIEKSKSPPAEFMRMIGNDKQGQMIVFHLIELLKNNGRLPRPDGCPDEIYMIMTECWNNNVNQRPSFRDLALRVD
From the text: as §1, §2

JAK1, sequence (P23458 875-1153): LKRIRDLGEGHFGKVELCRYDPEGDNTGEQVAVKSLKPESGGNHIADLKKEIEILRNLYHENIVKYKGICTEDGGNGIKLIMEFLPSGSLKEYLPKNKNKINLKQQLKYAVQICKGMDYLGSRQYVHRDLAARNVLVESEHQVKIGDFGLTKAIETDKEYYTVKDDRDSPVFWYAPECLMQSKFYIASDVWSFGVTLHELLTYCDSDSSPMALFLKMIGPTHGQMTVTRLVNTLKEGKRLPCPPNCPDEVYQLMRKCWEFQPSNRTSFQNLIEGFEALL

SMILES	IC50 (JAK1)	IC50 (JAK2)
CC(C)(C)OC(=O)N1CCC(CC#N)(n2cc(C(N)=O)c(Nc3ccc(S(N)(=O)=O)cc3)n2)CC1 [Example 9-20, tert-butyl 4-{4-carbamoyl-3-[(4-sulfamoylphenyl)amino]-1H-pyrazol-1-yl}-4-(cyanomethyl)piperidine-1-carboxylate]	0.1 nM	1 nM
CN(C)S(=O)(=O)c1ccc(Nc2nn(C3(CC#N)CCN(C(=O)OC(C)(C)C)CC3)cc2C(N)=O)cc1 [Example 9-21, tert-butyl 4-(4-carbamoyl-3-{[4-(dimethylsulfamoyl)phenyl]amino}-1H-pyrazol-1-yl)-4-(cyanomethyl)piperidine-1-carboxylate]	0.3 nM	0.8 nM
CC(C)(C)OC(=O)N1CCC(CC#N)(n2cc(C(N)=O)c(Nc3ccc(C(=O)N4CCOCC4)c(F)c3)n2)CC1 [Example 9-24, tert-butyl 4-(4-carbamoyl-3-{[3-fluoro-4-(morpholin-4-ylcarbonyl)phenyl]amino}-1H-pyrazol-1-yl)-4-(cyanomethyl)piperidine-1-carboxylate]	0.2 nM	0.7 nM
CC(C)(C)OC(=O)N1CCC(CC#N)(n2cc(C(N)=O)c(Nc3ccc(C(=O)N4CCOCC4)cc3)n2)CC1 [Example 9-25, tert-butyl 4-(4-carbamoyl-3-{[4-(morpholin-4-ylcarbonyl)phenyl]amino}-1H-pyrazol-1-yl)-4-(cyanomethyl)piperidine-1-carboxylate]	0.3 nM	0.7 nM
CC(C)(C)OC(=O)N1CCC(CC#N)(n2cc(C(N)=O)c(Nc3ccc(C#N)c(F)c3)n2)CC1 [Example 9-26, tert-butyl 4-{4-carbamoyl-3-[(4-cyano-3-fluorophenyl)amino]-1H-pyrazol-1-yl}-4-(cyanomethyl)piperidine-1-carboxylate]	0.4 nM	7 nM
CC(C)(C)OC(=O)N1CCC(CC#N)(n2cc(C(N)=O)c(Nc3ccc(F)c(F)c3)n2)CC1 [Example 9-28, tert-butyl 4-{4-carbamoyl-3-[(3,4-difluorophenyl)amino]-1H-pyrazol-1-yl}-4-(cyanomethyl)piperidine-1-carboxylate]	1 nM	24 nM
CC(C)(C)OC(=O)N1CCC(CC#N)(n2cc(C(N)=O)c(Nc3ccnc(Cl)c3)n2)CC1 [Example 9-29, tert-butyl 4-{4-carbamoyl-3-[(2-chloropyridin-4-yl)amino]-1H-pyrazol-1-yl}-4-(cyanomethyl)piperidine-1-carboxylate]	0.1 nM	3 nM
Cc1noc(-c2ccc(Nc3nn(C4(CC#N)CCN(C(=O)OC(C)(C)C)CC4)cc3C(N)=O)cc2)n1 [Example 9-30, tert-butyl 4-(4-carbamoyl-3-{[4-(3-methyl-1,2,4-oxadiazol-5-yl)phenyl]amino}-1H-pyrazol-1-yl)-4-(cyanomethyl)piperidine-1-carboxylate]	0.2 nM	5 nM
Cc1nc(-c2ccc(Nc3nn(C4(CC#N)CCN(C(=O)OC(C)(C)C)CC4)cc3C(N)=O)cc2)no1 [Example 9-32, tert-butyl 4-(4-carbamoyl-3-{[4-(5-methyl-1,2,4-oxadiazol-3-yl)phenyl]amino}-1H-pyrazol-1-yl)-4-(cyanomethyl)piperidine-1-carboxylate]	0.3 nM	8 nM
CC(C)(C)OC(=O)N1CCC(CC#N)(n2cc(C(N)=O)c(Nc3ccnc(C#N)c3)n2)CC1 [Example 9-33, tert-butyl 4-{4-carbamoyl-3-[(2-cyanopyridin-4-yl)amino]-1H-pyrazol-1-yl}-4-(cyanomethyl)piperidine-1-carboxylate]	0.2 nM	6 nM
CC(C)(C)OC(=O)N1CCC(CC#N)(n2cc(C(N)=O)c(Nc3cccnc3)n2)CC1 [Example 9-34, tert-butyl 4-[4-carbamoyl-3-(pyridin-3-ylamino)-1H-pyrazol-1-yl]-4-(cyanomethyl)piperidine-1-carboxylate]	0.5 nM	4 nM
CC(C)(C)OC(=O)N1CCC(CC#N)(n2cc(C(N)=O)c(Nc3cncc(F)c3)n2)CC1 [Example 9-35, tert-butyl 4-{4-carbamoyl-3-[(5-fluoropyridin-3-yl)amino]-1H-pyrazol-1-yl}-4-(cyanomethyl)piperidine-1-carboxylate]	1 nM	16 nM
CC(C)(C)OC(=O)N1CCC(CC#N)(n2cc(C(N)=O)c(Nc3cncc(Cl)c3)n2)CC1 [Example 9-36, tert-butyl 4-{4-carbamoyl-3-[(5-chloropyridin-3-yl)amino]-1H-pyrazol-1-yl}-4-(cyanomethyl)piperidine-1-carboxylate]	0.9 nM	21 nM
N#CCC1(n2cc(C(N)=O)c(Nc3ccc(C4CCC4)nc3)n2)CCN(C(=O)OCC(F)F)CC1 [Example 9-38, 2,2-difluoroethyl 4-{4-carbamoyl-3-[(6-cyclobutylpyridin-3-yl)amino]-1H-pyrazol-1-yl}-4-(cyanomethyl)piperidine-1-carboxylate]	0.3 nM	3 nM
COc1cc(Nc2nn(C3(CC#N)CCN(C(=O)OCC(F)F)CC3)cc2C(N)=O)ccn1 [Example 9-39, 2,2-difluoroethyl 4-{4-carbamoyl-3-[(2-methoxypyridin-4-yl)amino]-1H-pyrazol-1-yl}-4-(cyanomethyl)piperidine-1-carboxylate]	7 nM	348 nM
N#CCC1(n2cc(C(N)=O)c(Nc3ccnc(C4CC4)c3)n2)CCN(C(=O)OCC(F)F)CC1 [Example 9-41, 2,2-difluoroethyl 4-{4-carbamoyl-3-[(2-cyclopropylpyridin-4-yl)amino]-1H-pyrazol-1-yl}-4-(cyanomethyl)piperidine-1-carboxylate]	6 nM	201 nM
N#CCC1(n2cc(C(N)=O)c(Nc3ccc(S(=O)(=O)C(F)(F)F)cc3)n2)CCN(C(=O)OCC(F)(F)F)CC1 [Example 10-2, 2,2,2-trifluoroethyl 4-(4-carbamoyl-3-(4-(trifluoromethylsulfonyl)phenylamino)-1H-pyrazol-1-yl)-4-(cyanomethyl)piperidine-1-carboxylate]	0.5 nM	4 nM
N#CCC1(n2cc(C(N)=O)c(Nc3ccc(C(O)C(F)(F)F)nc3)n2)CCN(C(=O)OCC(F)(F)F)CC1 (centres unmarked) [Example 10-3, 2,2,2-trifluoroethyl 4-(4-carbamoyl-3-(6-(2,2,2-trifluoro-1-hydroxyethyl)pyridin-3-ylamino)-1H-pyrazol-1-yl)-4-(cyanomethyl)piperidine-1-carboxylate]	0.06 nM	0.6 nM
N#CCC1(n2cc(C(N)=O)c(Nc3cccc(-c4cc[nH]n4)c3)n2)CCN(C(=O)OCC(F)(F)F)CC1 [Example 10-4, 2,2,2-trifluoroethyl 4-(3-(3-(1H-pyrazol-3-yl)phenylamino)-4-carbamoyl-1H-pyrazol-1-yl)-4-(cyanomethyl)piperidine-1-carboxylate]	0.4 nM	29 nM
Cn1cc(-c2cccc(Nc3nn(C4(CC#N)CCN(C(=O)OCC(F)(F)F)CC4)cc3C(N)=O)c2)cn1 [Example 10-5, 2,2,2-trifluoroethyl 4-(4-carbamoyl-3-(3-(1-methyl-1H-pyrazol-4-yl)phenylamino)-1H-pyrazol-1-yl)-4-(cyanomethyl)piperidine-1-carboxylate]	0.2 nM	21 nM
Cn1cc(-c2cncc(Nc3nn(C4(CC#N)CCN(C(=O)OCC(F)(F)F)CC4)cc3C(N)=O)c2)cn1 [Example 10-6, 2,2,2-trifluoroethyl 4-(4-carbamoyl-3-(5-(1-methyl-1H-pyrazol-4-yl)pyridinl-3-ylamino)-1H-pyrazol-1-yl)-4-(cyanomethyl)piperidine-1-carboxylate]	0.8 nM	71 nM
N#CCC1(n2cc(C(N)=O)c(Nc3cccnc3)n2)CCN(C(=O)OCC(F)(F)F)CC1 [Example 10-7, 2,2,2-trifluoroethyl 4-(4-carbamoyl-3-(pyridin-3-ylamino)-1H-pyrazol-1-yl)-4-(cyanomethyl)piperidine-1-carboxylate]	0.2 nM	4 nM
N#CCC1(n2cc(C(N)=O)c(Nc3cncc(F)c3)n2)CCN(C(=O)OCC(F)(F)F)CC1 [Example 10-8, 2,2,2-trifluoroethyl 4-(4-carbamoyl-3-(5-fluoropyridin-3-ylamino)-1H-pyrazol-1-yl)-4-(cyanomethyl)piperidine-1-carboxylate]	0.7 nM	21 nM
N#CCC1(n2cc(C(N)=O)c(Nc3cncc(Cl)c3)n2)CCN(C(=O)OCC(F)(F)F)CC1 [Example 10-9, 2,2,2-trifluoroethyl 4-{4-carbamoyl-3-[(5-chloropyridin-3-yl)amino]-1H-pyrazol-1-yl}-4-(cyanomethyl)piperidine-1-carboxylate]	0.4 nM	15 nM
Cn1cc(-c2ccc(Nc3nn(C4(CC#N)CCN(C(=O)OCC(F)(F)F)CC4)cc3C(N)=O)cn2)cn1 [Example 11-1, 2,2,2-Trifluoroethyl 4-(4-carbamoyl-3-{[6-(1-methyl-1H-pyrazol-4-yl)pyridin-3-yl]amino}-1H-pyrazol-1-yl)-4-(cyanomethyl)piperidine-1-carboxylate]	0.03 nM	0.5 nM
N#CCC1(n2cc(C(N)=O)c(Nc3ccc(-c4cn[nH]c4)nc3)n2)CCN(C(=O)OCC(F)(F)F)CC1 [Example 11-2, 2,2,2-trifluoroethyl 4-(4-carbamoyl-3-{[6-(1H-pyrazol-4-yl)pyridin-3-yl]amino}-1H-pyrazol-1-yl)-4-(cyanomethyl)piperidine-1-carboxylate]	0.01 nM	0.6 nM
COC(=O)Cc1ccc(Nc2nn(C3(CC#N)CCN(C(=O)OC(C)(C)C)CC3)cc2C(N)=O)cc1 [Example 12-2, tert-butyl 4-(4-carbamoyl-3-{[4-(2-methoxy-2-oxoethyl)phenyl]amino}-1H-pyrazol-1-yl)-4-(cyanomethyl)piperidine-1-carboxylate]	0.2 nM	3 nM
CC(C)(C)OC(=O)N1CCC(CC#N)(n2cc(C(N)=O)c(Nc3cc(F)cc(F)c3)n2)CC1 [Example 12-3, tert-butyl 4-{4-carbamoyl-3-[(3,5-difluorophenyl)amino]-1H-pyrazol-1-yl}-4-(cyanomethyl)piperidine-1-carboxylate]	2 nM	42 nM
